The results in this text go back to ChEMBL document CHEMBL4715708, “Discovery of 8-Amino-imidazo[1,5-a]pyrazines as Reversible BTK Inhibitors for the Treatment of Rheumatoid Arthritis” (ACS Med Chem Lett, 2016).

The structures appear in SMILES notation.

Series [1] in a line: Clearance in rat at 4 mg/kg, iv. The format is ADME, organism-based. The settings on record: in vivo.
Series [2] in a line: Volume of distribution at steady state in rat at 4 mg/kg, iv. It counts as ADME, organism-based. The settings on record: in vivo, read-out: Vdss.
A short description of series [3]: Dose normalized AUC in rat at 4 mg/kg, iv. The format is ADME, organism-based. The settings on record: in vivo.
Series [4] is described as follows: Half life in rat at 4 mg/kg, iv. The conditions noted are these: in vivo. It counts as ADME, organism-based.
Series [5] in a line: Cmax in rat at 10 mg/kg, po. It counts as ADME, organism-based. Also noted: route oral, dose 10 mg/kg. The settings on record: in vivo.
Series [6] can be described thus: Tmax in rat at 10 mg/kg, po. The format is ADME, organism-based. The conditions noted are these: in vivo.
Series [7] can be described thus: Oral bioavailability in rat at 10 mg/kg. The settings on record: in vivo. The format is ADME, organism-based.
Series [8] in a line: Clearance in rat at 2 mg/kg, iv. The format is ADME, organism-based. The settings on record: in vivo.
Series [9] can be described thus: Volume of distribution at steady state in rat at 2 mg/kg, iv. It counts as ADME, organism-based. The settings on record: in vivo, read-out: Vdss.
Series [10] can be described thus: Dose normalized AUC in rat at 2 mg/kg, iv. The format is ADME, organism-based. The conditions noted are these: in vivo.
The nature of series [11]: Half life in rat at 2 mg/kg, iv. The settings on record: in vivo. It counts as ADME, organism-based.
Series [12] is described as follows: Cmax in rat at 5 mg/kg, po. It counts as ADME, organism-based. Further details: route oral, dose 5 mg/kg. The settings on record: in vivo.
Series [13] in a line: Tmax in rat at 5 mg/kg, po. The format is ADME, organism-based. The conditions noted are these: in vivo.
Series [14] can be described thus: Oral bioavailability in rat at 5 mg/kg. It counts as ADME, organism-based. The conditions noted are these: in vivo.
Series [15] is described as follows: Clearance in dog at 1 mg/kg, iv. It counts as ADME, organism-based, Canis lupus familiaris. The conditions noted are these: in vivo.
Series [16] can be described thus: Volume of distribution at steady state in dog at 1 mg/kg, iv. The format is ADME, organism-based, Canis lupus familiaris. The settings on record: in vivo, read-out: Vdss.
Series [17] can be described thus: Dose normalized AUC in dog at 1 mg/kg, iv. The format is ADME, organism-based, Canis lupus familiaris. The settings on record: in vivo.
A short description of series [18]: Half life in dog at 1 mg/kg, iv. It counts as ADME, organism-based, Canis lupus familiaris. The settings on record: in vivo.
Series [19] can be described thus: Cmax in dog at 2 mg/kg, po. The format is ADME, organism-based, Canis lupus familiaris. Further details: route oral, dose 2 mg/kg. The conditions noted are these: in vivo.
Series [20] in a line: Tmax in dog at 2 mg/kg, po. It counts as ADME, organism-based, Canis lupus familiaris. The conditions noted are these: in vivo.
Series [21] in a line: Oral bioavailability in dog at 2 mg/kg. The format is ADME, organism-based, Canis lupus familiaris. The conditions noted are these: in vivo.
The target of series [22] is Tyrosine-protein kinase Blk (Homo sapiens, UniProt P51451). As to the kind of experiment: Inhibition of human BLK.
Chain of Tyrosine-protein kinase Blk (P51451 whole entry): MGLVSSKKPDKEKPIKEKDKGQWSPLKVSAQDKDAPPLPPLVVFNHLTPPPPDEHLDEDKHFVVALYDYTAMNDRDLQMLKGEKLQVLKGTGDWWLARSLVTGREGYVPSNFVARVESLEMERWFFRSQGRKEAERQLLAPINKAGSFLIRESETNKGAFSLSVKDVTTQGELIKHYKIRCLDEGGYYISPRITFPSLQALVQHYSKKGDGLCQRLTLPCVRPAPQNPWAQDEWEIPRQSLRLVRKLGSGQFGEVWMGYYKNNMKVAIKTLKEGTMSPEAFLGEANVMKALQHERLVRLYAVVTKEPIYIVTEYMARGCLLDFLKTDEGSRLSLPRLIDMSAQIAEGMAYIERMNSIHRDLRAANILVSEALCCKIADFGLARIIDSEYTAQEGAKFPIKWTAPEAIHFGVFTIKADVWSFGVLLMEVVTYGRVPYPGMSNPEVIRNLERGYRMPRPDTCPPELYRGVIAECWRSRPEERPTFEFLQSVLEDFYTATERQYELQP
For series [23], the target named is T1, Cytoplasmic tyrosine-protein kinase BMX (Homo sapiens, UniProt P51813).
T1 sequence (P51813 whole entry): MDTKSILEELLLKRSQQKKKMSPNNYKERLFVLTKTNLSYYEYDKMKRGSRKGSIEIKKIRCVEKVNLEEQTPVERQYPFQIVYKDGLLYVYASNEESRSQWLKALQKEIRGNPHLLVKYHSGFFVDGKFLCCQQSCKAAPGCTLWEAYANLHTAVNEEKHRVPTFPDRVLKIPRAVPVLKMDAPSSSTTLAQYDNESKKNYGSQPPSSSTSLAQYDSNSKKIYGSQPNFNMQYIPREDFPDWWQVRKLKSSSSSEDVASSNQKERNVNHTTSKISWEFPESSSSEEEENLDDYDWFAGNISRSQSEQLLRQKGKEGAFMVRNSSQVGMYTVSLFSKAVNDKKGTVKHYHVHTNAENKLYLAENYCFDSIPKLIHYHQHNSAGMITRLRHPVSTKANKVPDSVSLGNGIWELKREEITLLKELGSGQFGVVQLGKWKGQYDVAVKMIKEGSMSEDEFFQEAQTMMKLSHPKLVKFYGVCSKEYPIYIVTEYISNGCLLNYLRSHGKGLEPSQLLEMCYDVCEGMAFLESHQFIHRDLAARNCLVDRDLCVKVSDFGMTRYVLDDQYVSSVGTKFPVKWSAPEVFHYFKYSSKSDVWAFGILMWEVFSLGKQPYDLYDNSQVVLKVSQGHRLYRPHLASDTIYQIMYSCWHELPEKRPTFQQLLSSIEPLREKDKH
As to the kind of experiment: Inhibition of human BMX.

Series [24] deals with Tyrosine-protein kinase CSK (Homo sapiens, UniProt P41240). As to the kind of experiment: Inhibition of human CSK.
Chain of Tyrosine-protein kinase CSK (P41240 whole entry): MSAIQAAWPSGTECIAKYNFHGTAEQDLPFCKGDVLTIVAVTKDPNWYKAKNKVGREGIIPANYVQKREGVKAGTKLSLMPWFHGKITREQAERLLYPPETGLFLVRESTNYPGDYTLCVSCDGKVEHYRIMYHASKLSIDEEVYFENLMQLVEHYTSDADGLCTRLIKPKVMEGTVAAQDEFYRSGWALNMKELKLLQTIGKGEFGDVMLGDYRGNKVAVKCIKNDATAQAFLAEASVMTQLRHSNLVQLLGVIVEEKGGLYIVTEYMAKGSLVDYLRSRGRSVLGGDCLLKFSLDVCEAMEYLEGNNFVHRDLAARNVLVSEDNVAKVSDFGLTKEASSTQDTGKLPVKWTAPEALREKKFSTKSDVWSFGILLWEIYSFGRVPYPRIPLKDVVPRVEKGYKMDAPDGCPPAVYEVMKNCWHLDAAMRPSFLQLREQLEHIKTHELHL
Series [25] deals with Receptor tyrosine-protein kinase erbB-4 (Homo sapiens, UniProt Q15303). Kind of series: Inhibition of human ERBB4.
Series [26] has as its target Tyrosine-protein kinase Fgr (Homo sapiens, UniProt P09769). As to the kind of experiment: Inhibition of human FGR.
Series [27] deals with Tyrosine-protein kinase FRK (Homo sapiens, UniProt P42685). Kind of series: Inhibition of human FRK.
For series [28], the target named is Tyrosine-protein kinase Fyn (Homo sapiens, UniProt P06241). Kind of series: Inhibition of human FYN.
Chain of Tyrosine-protein kinase Fyn (P06241 whole entry): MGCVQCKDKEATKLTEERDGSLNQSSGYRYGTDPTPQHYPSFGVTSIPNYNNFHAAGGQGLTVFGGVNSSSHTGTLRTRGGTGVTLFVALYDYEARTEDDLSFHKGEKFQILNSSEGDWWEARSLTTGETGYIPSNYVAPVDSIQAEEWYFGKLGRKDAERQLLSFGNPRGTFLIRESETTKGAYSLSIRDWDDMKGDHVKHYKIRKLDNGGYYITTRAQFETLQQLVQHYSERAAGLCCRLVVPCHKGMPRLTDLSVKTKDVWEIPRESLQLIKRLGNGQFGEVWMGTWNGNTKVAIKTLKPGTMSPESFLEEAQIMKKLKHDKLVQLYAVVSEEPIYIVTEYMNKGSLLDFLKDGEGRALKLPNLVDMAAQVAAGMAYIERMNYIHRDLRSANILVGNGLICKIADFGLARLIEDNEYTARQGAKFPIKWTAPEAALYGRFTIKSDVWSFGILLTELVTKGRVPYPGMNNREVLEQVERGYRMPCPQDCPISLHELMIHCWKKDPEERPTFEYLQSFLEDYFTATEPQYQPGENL
The target in series [29] is T2, Tyrosine-protein kinase ITK/TSK (Homo sapiens, UniProt Q08881).
T2 sequence (Q08881 whole entry): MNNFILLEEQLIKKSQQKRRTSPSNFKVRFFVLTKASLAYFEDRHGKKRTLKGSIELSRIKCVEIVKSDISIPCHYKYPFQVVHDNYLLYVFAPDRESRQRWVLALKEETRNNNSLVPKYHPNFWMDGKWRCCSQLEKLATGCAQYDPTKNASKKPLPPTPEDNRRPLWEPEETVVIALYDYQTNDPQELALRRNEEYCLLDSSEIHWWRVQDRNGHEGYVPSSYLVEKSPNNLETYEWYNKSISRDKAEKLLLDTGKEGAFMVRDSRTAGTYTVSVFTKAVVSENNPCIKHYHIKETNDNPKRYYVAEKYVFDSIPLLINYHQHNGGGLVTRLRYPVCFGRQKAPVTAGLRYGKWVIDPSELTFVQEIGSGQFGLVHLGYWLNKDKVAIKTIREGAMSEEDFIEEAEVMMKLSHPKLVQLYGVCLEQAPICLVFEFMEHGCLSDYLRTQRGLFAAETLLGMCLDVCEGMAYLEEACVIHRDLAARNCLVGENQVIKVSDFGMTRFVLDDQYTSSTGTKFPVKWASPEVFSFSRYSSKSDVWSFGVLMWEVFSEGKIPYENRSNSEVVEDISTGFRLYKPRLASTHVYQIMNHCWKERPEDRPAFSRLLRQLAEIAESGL
Kind of series: Inhibition of human ITK.

In series [30] the target is Tyrosine-protein kinase Lck (Homo sapiens, UniProt P06239). Kind of series: Inhibition of human LCK.
Chain of Tyrosine-protein kinase Lck (P06239 whole entry): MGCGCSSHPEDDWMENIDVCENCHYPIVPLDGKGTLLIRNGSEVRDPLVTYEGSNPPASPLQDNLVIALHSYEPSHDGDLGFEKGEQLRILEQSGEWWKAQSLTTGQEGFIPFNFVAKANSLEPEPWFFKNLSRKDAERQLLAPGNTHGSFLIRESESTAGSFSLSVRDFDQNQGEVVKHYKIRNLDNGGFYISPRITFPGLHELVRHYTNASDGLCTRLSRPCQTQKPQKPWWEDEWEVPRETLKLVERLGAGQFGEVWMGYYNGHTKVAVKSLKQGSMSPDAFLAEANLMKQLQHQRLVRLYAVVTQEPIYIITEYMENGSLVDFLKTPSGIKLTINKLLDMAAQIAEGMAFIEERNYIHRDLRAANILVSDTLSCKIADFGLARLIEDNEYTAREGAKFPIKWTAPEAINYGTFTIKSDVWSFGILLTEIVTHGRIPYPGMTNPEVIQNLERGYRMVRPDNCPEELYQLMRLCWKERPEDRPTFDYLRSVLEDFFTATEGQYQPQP
The target of series [31] is Tyrosine-protein kinase Lyn (Homo sapiens, UniProt P07948). As to the kind of experiment: Inhibition of human LYNB.
Chain of Tyrosine-protein kinase Lyn (P07948 whole entry): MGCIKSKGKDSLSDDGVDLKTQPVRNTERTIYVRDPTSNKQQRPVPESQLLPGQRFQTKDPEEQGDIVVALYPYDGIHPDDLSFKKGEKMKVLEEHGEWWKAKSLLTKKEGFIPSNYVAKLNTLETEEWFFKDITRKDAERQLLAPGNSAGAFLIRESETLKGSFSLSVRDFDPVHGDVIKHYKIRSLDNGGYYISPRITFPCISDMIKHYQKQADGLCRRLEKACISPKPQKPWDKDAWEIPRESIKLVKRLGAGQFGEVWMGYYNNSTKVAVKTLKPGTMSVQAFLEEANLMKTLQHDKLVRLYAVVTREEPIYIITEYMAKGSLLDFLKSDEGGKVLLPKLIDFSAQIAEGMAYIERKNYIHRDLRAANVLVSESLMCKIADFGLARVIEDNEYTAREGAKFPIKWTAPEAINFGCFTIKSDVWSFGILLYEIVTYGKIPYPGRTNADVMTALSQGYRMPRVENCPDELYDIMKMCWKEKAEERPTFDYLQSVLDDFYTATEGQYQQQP
Series [32] addresses Protein-tyrosine kinase 6 (Homo sapiens, UniProt Q13882). Kind of series: Inhibition of human PTK6.
The target in series [33] is Proto-oncogene tyrosine-protein kinase Src (Homo sapiens, UniProt P12931). As to the kind of experiment: Inhibition of human SRC.
Chain of Proto-oncogene tyrosine-protein kinase Src (P12931 2-536 limits assumed): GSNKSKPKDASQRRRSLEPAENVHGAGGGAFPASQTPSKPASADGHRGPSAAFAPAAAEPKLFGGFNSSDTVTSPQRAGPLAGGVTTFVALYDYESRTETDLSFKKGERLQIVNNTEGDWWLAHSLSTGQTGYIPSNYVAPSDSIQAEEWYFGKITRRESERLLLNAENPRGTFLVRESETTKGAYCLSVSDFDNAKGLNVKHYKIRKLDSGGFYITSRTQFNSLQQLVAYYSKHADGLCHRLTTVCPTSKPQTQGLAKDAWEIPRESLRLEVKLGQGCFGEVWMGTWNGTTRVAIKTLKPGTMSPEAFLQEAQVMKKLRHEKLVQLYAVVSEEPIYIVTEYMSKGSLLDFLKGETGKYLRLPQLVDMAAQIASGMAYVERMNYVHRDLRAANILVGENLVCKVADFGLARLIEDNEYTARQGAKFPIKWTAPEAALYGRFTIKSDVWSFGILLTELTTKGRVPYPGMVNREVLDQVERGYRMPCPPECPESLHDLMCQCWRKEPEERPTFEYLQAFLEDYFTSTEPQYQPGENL
Series [34] has as its target Tyrosine-protein kinase Srms (Homo sapiens, UniProt Q9H3Y6). As to the kind of experiment: Inhibition of human SRMS.
In series [35] the target is T3, Tyrosine-protein kinase Tec (Homo sapiens, UniProt P42680).
T3 sequence (P42680 whole entry): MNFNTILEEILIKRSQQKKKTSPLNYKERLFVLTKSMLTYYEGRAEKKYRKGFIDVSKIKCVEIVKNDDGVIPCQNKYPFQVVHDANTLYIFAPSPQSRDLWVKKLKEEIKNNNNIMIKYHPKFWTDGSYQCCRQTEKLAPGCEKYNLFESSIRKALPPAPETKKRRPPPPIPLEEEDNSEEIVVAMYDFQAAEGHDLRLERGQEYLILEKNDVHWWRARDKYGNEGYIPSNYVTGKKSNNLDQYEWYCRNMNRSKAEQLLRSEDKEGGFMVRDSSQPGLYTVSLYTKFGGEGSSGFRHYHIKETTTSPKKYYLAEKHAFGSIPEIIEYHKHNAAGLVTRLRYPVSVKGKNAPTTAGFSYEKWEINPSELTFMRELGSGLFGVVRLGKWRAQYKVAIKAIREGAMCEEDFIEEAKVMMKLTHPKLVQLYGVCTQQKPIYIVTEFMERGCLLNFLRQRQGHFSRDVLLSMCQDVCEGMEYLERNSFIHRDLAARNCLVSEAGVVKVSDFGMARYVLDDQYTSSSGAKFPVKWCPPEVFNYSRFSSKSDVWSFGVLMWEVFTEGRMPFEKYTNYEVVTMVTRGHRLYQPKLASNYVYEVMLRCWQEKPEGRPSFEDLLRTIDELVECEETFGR
As to the kind of experiment: Inhibition of human TEC.

Series [36] deals with T4, Tyrosine-protein kinase TXK (Homo sapiens, UniProt P42681).
T4 sequence (P42681 whole entry): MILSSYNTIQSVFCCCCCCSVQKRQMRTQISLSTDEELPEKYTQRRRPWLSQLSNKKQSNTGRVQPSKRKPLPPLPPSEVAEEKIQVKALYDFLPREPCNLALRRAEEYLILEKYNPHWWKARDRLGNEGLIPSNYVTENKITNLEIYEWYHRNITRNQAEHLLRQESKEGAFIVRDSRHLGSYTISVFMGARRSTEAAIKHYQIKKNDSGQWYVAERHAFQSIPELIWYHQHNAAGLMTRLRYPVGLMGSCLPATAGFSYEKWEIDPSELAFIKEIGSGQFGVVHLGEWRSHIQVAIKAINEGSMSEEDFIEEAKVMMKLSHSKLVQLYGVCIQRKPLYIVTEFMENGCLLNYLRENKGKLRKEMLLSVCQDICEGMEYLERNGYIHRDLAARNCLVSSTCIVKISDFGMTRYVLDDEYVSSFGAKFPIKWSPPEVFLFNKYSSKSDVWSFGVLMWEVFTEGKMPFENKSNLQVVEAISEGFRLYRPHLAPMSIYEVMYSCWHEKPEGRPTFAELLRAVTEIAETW
Kind of series: Inhibition of human TXK.

Series [37] deals with Tyrosine-protein kinase Yes (Homo sapiens, UniProt P07947). Kind of series: Inhibition of human YES1.
Chain of Tyrosine-protein kinase Yes (P07947 whole entry): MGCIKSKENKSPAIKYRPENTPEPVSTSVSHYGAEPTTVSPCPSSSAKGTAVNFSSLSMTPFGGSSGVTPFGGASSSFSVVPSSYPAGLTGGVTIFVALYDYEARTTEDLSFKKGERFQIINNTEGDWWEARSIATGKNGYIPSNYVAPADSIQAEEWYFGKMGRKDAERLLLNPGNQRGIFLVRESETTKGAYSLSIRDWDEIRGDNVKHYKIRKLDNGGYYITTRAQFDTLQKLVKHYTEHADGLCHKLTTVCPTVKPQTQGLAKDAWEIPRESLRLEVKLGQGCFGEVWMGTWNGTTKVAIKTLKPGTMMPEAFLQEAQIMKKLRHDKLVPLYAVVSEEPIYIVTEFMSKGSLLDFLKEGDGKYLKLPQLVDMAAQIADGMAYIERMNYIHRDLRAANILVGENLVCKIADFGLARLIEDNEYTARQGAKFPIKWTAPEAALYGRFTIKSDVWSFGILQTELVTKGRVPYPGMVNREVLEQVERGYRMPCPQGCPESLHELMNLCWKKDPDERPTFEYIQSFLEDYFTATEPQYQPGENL

Chain of Protein-tyrosine kinase 6 (Q13882 whole entry): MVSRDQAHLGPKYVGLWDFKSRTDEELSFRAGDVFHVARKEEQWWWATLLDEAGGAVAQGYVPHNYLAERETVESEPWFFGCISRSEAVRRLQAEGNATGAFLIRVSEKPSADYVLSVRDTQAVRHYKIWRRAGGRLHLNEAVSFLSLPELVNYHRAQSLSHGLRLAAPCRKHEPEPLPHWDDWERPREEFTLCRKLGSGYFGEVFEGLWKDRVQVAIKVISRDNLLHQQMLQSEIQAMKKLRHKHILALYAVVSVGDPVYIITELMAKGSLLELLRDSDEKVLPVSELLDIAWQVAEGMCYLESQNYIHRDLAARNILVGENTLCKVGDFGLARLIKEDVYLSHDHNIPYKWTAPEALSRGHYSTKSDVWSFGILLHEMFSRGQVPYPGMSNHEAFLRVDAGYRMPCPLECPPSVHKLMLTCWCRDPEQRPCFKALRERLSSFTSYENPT
Chain of Tyrosine-protein kinase Srms (Q9H3Y6 whole entry): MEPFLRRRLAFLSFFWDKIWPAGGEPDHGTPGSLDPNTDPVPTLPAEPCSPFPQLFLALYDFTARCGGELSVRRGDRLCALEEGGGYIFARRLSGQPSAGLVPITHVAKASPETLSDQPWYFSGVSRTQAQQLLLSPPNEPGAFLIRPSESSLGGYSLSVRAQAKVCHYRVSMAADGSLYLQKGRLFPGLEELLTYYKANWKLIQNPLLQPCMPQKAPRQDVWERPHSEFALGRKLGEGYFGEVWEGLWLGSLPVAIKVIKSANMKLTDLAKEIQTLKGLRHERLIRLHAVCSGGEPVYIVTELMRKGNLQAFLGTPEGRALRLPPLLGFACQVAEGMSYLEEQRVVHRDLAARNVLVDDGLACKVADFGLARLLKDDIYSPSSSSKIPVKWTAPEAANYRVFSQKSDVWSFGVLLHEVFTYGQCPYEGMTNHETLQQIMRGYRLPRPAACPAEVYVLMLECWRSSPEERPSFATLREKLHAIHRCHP

Consider `CC1(C(=O)N2CCC[C@@H](c3nc(-c4ccc(C(=O)Nc5cc(C(F)(F)F)ccn5)cc4)c4c(N)nccn34)C2)COC1`, for which, in series [1], the clearance (in general, the volume of plasma or blood freed of the substance per unit of time) is 6.3 mL/min/kg. Moreover, the Vd in series [2] stood at 0.59 L/kg. This compound registered an AUC/dose in series [3] of 5.1 µM·h. The half-life (as a rule, the time in which the quantity being followed falls by half) in [4] was 1.2 h. For the same compound, the concentration in series [5] peaked (Cmax) at 4800 nM. Also, the Tmax (in general, the time at which the peak concentration occurs) in [6] stood at 2.2 h. Besides, in series [7], the bioavailability (as a rule, the share of a dose that reaches the circulation, judged against a reference dose that is usually intravenous) was found to be 84%.

As for `C[C@H]1CC[C@@H](c2nc(-c3ccc(C(=O)Nc4cc(C(F)(F)F)ccn4)cc3F)c3c(N)nccn23)CN1C(=O)C1CC1`, the clearance in series [8] stood at 18 mL/min/kg; in series [15], 1.5 mL/min/kg. Besides, the figures for the Vd in series [9] and in series [16] were 2.6 L/kg and 0.65 L/kg, respectively. The values for the AUC/dose in series [10] and in [17] were 1.6 µM·h and 20 µM·h, respectively. Besides, the half-life in series [11] was 1.8 h; in series [18] it was 6.5 h. In addition, the figures for the Cmax in [12] and in series [19] were 400 nM and 3900 nM, respectively. The Tmax in [13] stood at 1 h; in [20], 2 h. The results for the bioavailability in series [14] and in series [21] were 22% and 82%, respectively.

As to `CC1(C(=O)N2CCC[C@@H](c3nc(-c4ccc(C(=O)Nc5cc(C(F)(F)F)ccn5)cc4F)c4c(N)nccn34)C2)COC1`, the 50% inhibitory concentration (IC50) (commonly the concentration that gives 50% inhibition) turned out to be 42 nM in series [22]; 20 nM in [23]; 253 nM in series [24]; 81 nM in series [25]; 55 nM in [26]; 187 nM in [27]. The half-maximal inhibitory concentration (IC50) came to 322 nM in series [28]; 921 nM in [29]; 22 nM in series [30]; 184 nM in series [31]; 63 nM in [32]; 116 nM in [33]. Further, the IC50 in [34] stood at 24 nM; in series [35] it was 69 nM; in series [36], 32 nM; in [37] it was 43 nM. Besides, the results for the clearance in series [8] and in [15] were 24 mL/min/kg and 11 mL/min/kg, respectively. In addition, the Vd worked out at 1.7 L/kg in series [9] and 2 L/kg in [16]. Besides, the AUC/dose is 1.1 µM·h in series [10] and 3 µM·h in [17]. The half-life was 1.4 h in [11] and 4.1 h in series [18]. In addition, the Cmax (usually the highest concentration seen after dosing) in [12] was 1000 nM; in series [19], 780 nM. Moreover, the Tmax in series [13] is 0.5 h; in series [20] it was 1 h. The bioavailability is 77% in [14] and 60% in [21].
